Test results reported in patent US6706509B2, “Oncoprotein protein kinase” (The Regents of the University of California, priority 1993, dated 2004).

Columns and labels:
[1] = tested on: JNK (55 kD and 46 kD forms); test: In-gel kinase assay of JNK in Jurkat whole cell extracts; assay type: cell-based, human; conditions: for JNK activation, in-gel kinase assay, agent alone: TPA 50 ng/ml or A23187 1 μg/ml
Experimental: In-gel kinase assay was performed as described by Kameshita and Fujisawa, Anal. Biochem., 183:139, (1989) with slight modifications. Briefly, c-Jun binding proteins were isolated from whole cell extracts by using GSH-agarose beads containing 80 μg GST-cJun as described above. Proteins were eluted in Laemlli sample buffer and resolved on 10% SDS-polyacrylamide gel, which was polymerized in the absence or presence of GST-cJun (40 μg/ml). After electrophoresis, the gel was washed twice, 30 minutes each time with 100 ml of 20% 2-propanol, 50 mM HEPES pH 7.6 to remove SDS. After the gel was washed twice, 30 minutes each time, with 100 ml of buffer A (50 mM HEPES pH 7.6, 5 mM β-mercaptoethanol), it was incubated in 200 ml of 6M urea in buffer A at room temperature for 1 hr, followed by serial incubations in buffer A containing 0.05% Tween 20 and either 3M, 1.5M or 0.75M urea. After the gel was washed several times, 1 hr each time, with 100 ml of buffer A containing 0.05% Tween 20 at 4° C., it was incubated with kinase buffer containing 50 μM ATP and 5 μCi/ml γ-^32P-ATP at 30° C. for 1 hour. After the reaction, the gel was washed with 100 ml of 5% tricholoroacetic acid and 1% sodium pyrophosphate at room temperature several times, followed by drying and autoradiography.
JNK exists in two forms, 46 kD and 55 kD in size, both of which are activated by external stimuli (Hibi, et al., supra, 1993; Deng, et al., supra, 1993). […] Whole cell extracts (WCE) of Jurkat cells incubated with TPA (T, 50 ng/ml), A23187 (A, 1 μg/ml) or CsA (100 ng/ml) for 15 minutes, alone or in combination, were separated by SDS-PAGE (100 μg protein/lane) on gels that were cast in the absence or presence of GST-cJun (1-223). The gels were subjected to renaturation protocol and incubated in kinase buffer containing γ-^32P-ATP. The protein bands corresponding to the 55 kD and 46 kD forms of JNK are indicated.
The regulation of JNK in response to T cell activation with anti-CD3 and anti-CD28 antibodies was examined. Jurkat cells (1×10^7) were incubated for 15 minutes with either normal mouse serum, 1 μg/ml anti-CD3 and/or 2 μg/ml anti-CD28, in the absence or presence of 100 ng/ml CsA, as indicated. WCE were prepared and 100 μg samples were analyzed for JNK activation using the in-gel kinase assay, as described above.

c-jun = test: c-Jun phosphorylation in 32P-labelled Jurkat cells (SDS-PAGE, tryptic phosphopeptide mapping); assay type: cell-based, human
Experimental: Jurkat cells were grown in RPMI with 10% fetal calf serum (FCS), 1 mM […], 100 μ/ml penicillin (pen), 100 μg/ml streptomycin (strep) and 250 ng/ml amphotericin (complete medium). HeLa S3, CV-1 and FR3T3 cells were grown in DMEM supplemented with 10% FCS, 100 μ/ml pen, 100 μg/ml strep. All cells were cultured at 37° C. with 5% CO2. Mouse thymocytes were prepared from 8 week old Balb/C mice by gradient centrifugation on lymphocyte separation medium (Pharmacia). The lymphocytes were cultured for 5 hours at 37° C. in RPMI+10% FCS, prior to stimulation. Jurkat cells were labelled for 90 minutes with 0.5 mCi/ml ^32P-orthophosphate (ICN Radiochemicals) in medium lacking sodium phosphate. Labelled cells were treated with TPA (Sigma) and A23187 (Calbiochem) 1 μg/ml as indicated. When used, cyclosporin A (CsA) (Sandoz) 100 ng/ml in ethanol was added 10 minutes prior to cell stimulation. Following stimulation, the labelled cells were washed twice with ice-cold PBS then lysed with RIPA buffer (10 mM Tris pH 7.5, 150 mM NaCl, 2 mM EDTA, 1% Triton-X 100, 1% DOC, 0.1% SDS) supplemented with phosphatase inhibitors (20 mM β-glycerophosphate, 10 mM p-nitro-phenylphosphate, 1 mM Na3 VO4), and protease inhibitors (10 μg/ml leupeptin, aprotonin, pepstatin and 1 mM phenylmethyl sulfonylfluoride). c-Jun was immunoprecipitated as described (Binetruy, et al., supra., 1992) and analyzed by SDS-PAGE, followed by peptide mapping (Boyle, et al., Cell, 64:573-584, 1991; Lin, et al. Cell, 70:777-789, 1992). Ha-Ras was immunoprecipitated with Y13-259. Ha-Ras bound nucleotides were extracted and analyzed as described by Satoh, et al., (Proc. Natl. Acad. Sci., USA, 15:5993-5997, 1990).
Induction of c-Jun transcription and optimal stimulation of AP-1 correlate with changes in c-jun phosphorylation (Devary, et al., Cell, 71:1081-1091, 1992). The effect of TPA and A23187 on c-Jun phosphorylation in Jurkat cells was examined. To elevate c-Jun expression, Jurkat cells were transfected with a c-Jun expression vector. The cells were labelled with ^32P and c-Jun was immunoprecipitated from cells subjected to various stimuli and analyzed by SDS-PAGE (FIG. 12A). Jurkat cells (10^6 cells per lane) were transfected with 0.5 μg of a SRα-cJun expression vector and 24 hours later were labeled for 3 hours with ^32P-orthophosphate (1 mCi/ml). After 15 minutes, treatment with 50 ng/ml TPA (T), 1 μg/ml A23187 (A) and 100 ng/ml CsA, either alone or in combination, as indicated, the cells were lysed in RIPA buffer and c-Jun was isolated by immunoprecipitation and analyzed by SDS-PAGE. The c-Jun bands are indicated.
c-Jun phosphorylation was further analyzed by two-dimensional phosphopeptide mapping (FIG. 12C). This analysis included all the isoforms of c-Jun. All of the c-Jun specific protein bands shown in FIG. 12A, isolated from equal numbers of cells, were excised from the gel and subjected to tryptic phosphopeptide mapping. Shown is a typical result (this experiment was repeated at least three times). N-nonstimulated cells; T-cells treated with 50 ng/ml TPA; T/A: cells treated with 50 ng/ml TPA and 1 μg/ml A23187; T/A+CsA: cells treated with T/A and 100 ng/ml CsA. a,b,c,x and y correspond to the various tryptic phosphopeptides of c-Jun, previously described by Boyle, et al., (Cell, 64:573-584, 1991) and Smeal, et al., (Nature, 354:494-496, 1991). T1 and T2 correspond to the minor phosphorylation sites; Thr91, 93 and 95 (Hibi, et al., Genes & Dev., 7:000, 1993).

## anti-CD3: anti-CD3 monoclonal antibody OKT3
[1]; Jurkat, 1 μg/ml anti-CD3 and 2 μg/ml anti-CD28, 15 minutes
  JNK activity, in-gel kinase assay, simultaneous incubation with both antibodies: strong synergistic activation of both forms

## cyclosporin A [CsA]
c-jun; CsA 100 ng/ml
  N-terminal c-Jun phosphorylation, CsA added to TPA+A23187: prevented the enhancement of N-terminal phosphorylation
c-jun; CsA 100 ng/ml, 15 minutes
  phosphorylated c-Jun migration, CsA added to TPA+A23187: reduced the Ca^++ effect
[1]; CsA 100 ng/ml, 15 minutes
  JNK activation, in-gel kinase assay, CsA added to TPA+A23187: blocked this costimulatory effect

## CNc1ccc2oc(C[C@H]3O[C@@]4(CC[C@H]3C)O[C@H]([C@H](C)C(=O)c3ccc[nH]3)[C@H](C)C[C@H]4C)nc2c1C(=O)O [A23187]
c-jun; A23187 1 μg/ml plus TPA 50 ng/ml
  N-terminal c-Jun phosphorylation, costimulation with TPA: strongly enhanced
c-jun; A23187 1 μg/ml plus TPA, 15 minutes
  phosphorylated c-Jun migration, costimulation with TPA: enhanced this effect
[1]; A23187 1 μg/ml plus TPA 50 ng/ml, 15 minutes
  JNK activation, in-gel kinase assay, costimulation with TPA: potentiated its activation by TPA
[1]; Jurkat, 15 minutes
  JNK activation, in-gel kinase assay, agent alone: did not activate JNK

## CCCCCCCCCCCCCC(=O)O[C@@H]1[C@@H](C)[C@@]2(O)[C@@H](C=C(CO)C[C@]3(O)C(=O)C(C)=C[C@@H]23)[C@H]2C(C)(C)[C@]12OC(C)=O [TPA]
c-jun; Jurkat transfected with c-Jun vector, TPA 50 ng/ml, 15 minutes
  phosphorylated c-Jun migration on SDS-PAGE, agent alone: induced the appearance of slower migrating bands
c-jun; Jurkat, TPA 50 ng/ml
  phosphorylation of N-terminal sites Ser63 and Ser73 of c-Jun (phosphopeptide map), agent alone: increased phosphorylation of the N-terminal sites
[1]; Jurkat, 15 minutes
  JNK activation, in-gel kinase assay, agent alone: activated
